Active and inactive are the calls of the source.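 Rule for the calls: active = fitted curve reaching 35% inhibition at a dose no higher than twice the top valid tested dose; inconclusive = flat fit with 30 to 70% inhibition, or a poor fit; inactive = the rest, including activity in the opposite direction.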
tested on: A673 NR0B1-luciferase reporter, viability-normalised luminescence; test: NR0B1 reporter signal reduction in A673 cells – cell-based, luciferase luminescence, cherry-pick, EWS/Fli inhibitor project, dose response (AID 686920)

Row | Structure (SMILES) | AC35
1 | C[C@@H]1CN([C@@H](C)CO)C(=O)Cc2cc(N(C)C)ccc2O[C@H]1CN(C)Cc1ccc(C(=O)Nc2ccccc2N)cc1 | 11.4 µM
2 | Cc1ccc(/C=C2\SC(=S)N(CCCC(=O)NNC(=O)c3ccccc3O)C2=O)cc1 | 2.09 µM
3 | Cc1ccc(S(=O)(=O)Nc2ccc3c(c2)C(=O)N([C@H](C)CO)C[C@H](C)[C@@H](CN(C)Cc2ccc(C(F)(F)F)cc2)OCCCC[C@H](C)O3)cc1 | 11.5 µM
4 | C[C@H]1CN([C@@H](C)CO)C(=O)c2cc(NS(=O)(=O)c3ccc(Cl)cc3)ccc2O[C@H]1CN(C)Cc1ccc(Cl)c(Cl)c1 | 40.5 µM
5 | N#CC1C=Cc2c(ccc3ccccc23)N1C(=O)c1ccccc1 (stereo not drawn) | 0.692 µM
6 | Cc1ccc2c(=O)n3c(nc2c1)C(Cc1ccc(O)cc1)NC(=O)c1cc2ccccc2cc1-3 (stereo not drawn) | 6.25 µM
7 | O=c1[nH]c(=O)n([C@H]2C[C@H](O)[C@@H](CO)O2)cc1F | 2.63 µM
8 | CN(C)C(=O)c1cccc(-c2ccc(C3[C@@H]4CN(Cc5nccs5)C[C@H]3N4)cc2)c1 (stereo partly drawn) | > 68 µM (inactive)
9 | Cc1cc(C(=O)Nc2ccc3c(c2)C(=O)N(C)[C@@H]2CC[C@@H](CC(=O)NCc4ccc(-c5ccccc5)cc4)O[C@H]2CO3)no1 | 6.29 µM
10 | CN(Cc1cnc2nc(N)nc(N)c2n1)c1ccc(C(=O)N[C@@H](CCC(=O)O)C(=O)O)cc1 | < 0.03 µM
11 | Oc1cccc(-c2nnc(-c3cccc(O)c3)nn2)c1 | 7.64 µM
12 | COc1cccc(O)c1CN1CCC(C(=O)Nc2ccc(-c3cccc(C)c3)cc2)CC1 | 29.1 µM
13 | N#C[C@H]1[C@H](c2ccc(-c3ccccc3F)cc2)[C@@H](CO)N1C(=O)Cc1ccccc1 | 3.31 µM
14 | O=C1NC2C(=CC(O)C(O)C2O)c2cc3c(cc21)OCO3 (stereo not drawn) | 0.429 µM
15 | COc1ccc2cc(C(N)=O)/c(=N\NC(=O)c3ccccc3)oc2c1 | 5.91 µM
16 | COc1ccc(C(C)(O)c2nc(-c3cccc(F)c3)cs2)cc1 (stereo not drawn) | 8.04 µM
17 | COc1ccc(OC)c(-c2nnc3n2N=C(c2ccc(OC)c(OC4CCOC4)c2)CS3)c1 (stereo not drawn) | 6.56 µM
18 | CC(C)(C)c1ccc(/C=N/Nc2ccc(C(=O)O)cc2)cc1 | 2.22 µM
19 | CCc1ccc(N2C=C(C(=O)OC)C(c3ccc(OC)cc3)C(C#N)=C2N)cc1 (stereo not drawn) | 5.38 µM
20 | CCOC(=O)Cc1csc(NC(=S)NC(=O)c2ccc(C)cc2)n1 | 0.265 µM
21 | CC(=O)OC1CC(OC2C(O)CC(OC3C(O)CC(OC4CCC5(C)C(CCC6C5CCC5(C)C(C7=CC(=O)OC7)CCC65O)C4)OC3C)OC2C)OC(C)C1OC1OC(CO)C(O)C(O)C1O (stereo not drawn) | 0.0893 µM
22 | Nc1nc(N)c(-c2cccc(C(F)(F)F)c2)c(Cc2cccc(C(F)(F)F)c2)n1 | 2.54 µM

Row | Structure (SMILES) | AC35
23 | C[C@@H]1O[C@@H](O[C@@H]2C=C3CCC4C(CC[C@]5(C)[C@@H](c6ccc(=O)oc6)CC[C@]45O)[C@@]3(C)CC2)[C@H](O)[C@H](O)[C@H]1O (stereo partly drawn) | < 0.09 µM
24 | COc1ccc(C2c3cc4c(cc3OC(NNC(N)=O)C2C)OCO4)cc1 (stereo not drawn) | 14 µM
25 | Cc1nc2ncccn2c1-c1csc(Nc2ccc(O)cc2)n1 | 8.68 µM
26 | Cc1cccc(N2CCN(C3C(=O)Nc4ccccc4-n4nnnc43)CC2)c1C (stereo not drawn) | 9.29 µM
27 | O=S(=O)(c1ccc(F)cc1)N1C[C@H]2[C@@H](c3ccccc31)[C@H](CO)N2Cc1ccccc1Cl | 33.7 µM
28 | C/C(=N\NC(=O)c1n[nH]c2c1CCC2)c1cccs1 | 1.78 µM
29 | C[C@H]1CN([C@@H](C)CO)C(=O)Cc2cc(NC(=O)CCCCCC(=O)Nc3ccccc3N)ccc2O[C@H]1CN(C)Cc1ccc(C(F)(F)F)cc1 | 6.15 µM
30 | C[C@@H]1CN([C@@H](C)CO)C(=O)c2cccc(NC(=O)Nc3cccc4ccccc34)c2O[C@@H]1CN(C)Cc1ccc(C(=O)Nc2ccccc2N)cc1 | 10.2 µM
31 | O=C(/C=C/c1ccc(Cl)cc1Cl)N(Cc1ccc(Cl)cc1)C1CCS(=O)(=O)C1 (stereo not drawn) | 33.5 µM
32 | Cc1ccc(N2C(=O)c3cccc4c(N)ccc(c34)C2=O)c2cccnc12 | < 0.03 µM
33 | COc1ccc(-c2cc(CNc3nc(NC(C)C)nc4cc(-c5ccccc5)sc34)on2)cc1 | 15.7 µM
34 | C[C@H](CO)N1C[C@H](C)[C@H](CN(C)Cc2ccc(C(=O)Nc3ccccc3N)cc2)Oc2ccc(NS(=O)(=O)c3cccs3)cc2C1=O | 11.6 µM
35 | CCCCNC(=O)C(c1ccc(OCC(=O)OC)c(C(=O)OC)c1)N(CCOC)C(=O)CCCCCN1C(=O)NC(c2ccc(-c3ccccc3)cc2)C(C(=O)OCc2ccccc2)=C1C (stereo not drawn) | 40.4 µM
36 | O=c1c2ccccc2oc2cc(C#CC3(O)CCCCC3)ccc12 | 4.33 µM
37 | COc1ccc(S(=O)(=O)Nc2ccc3c(c2)C(=O)N([C@H](C)CO)C[C@@H](C)[C@@H](CN(C)CC2CCCCC2)OCCCC[C@H](C)O3)cc1 | 14.2 µM
38 | C[C@@H]1CN([C@@H](C)CO)C(=O)c2cc(NC(=O)c3ccccc3)ccc2O[C@@H](C)CCCCO[C@H]1CN(C)C(=O)Nc1cccc2ccccc12 | 0.873 µM
39 | COc1ccc(Nc2oc(COc3ccccc3OC)nc2C#N)cc1 | 6.24 µM
40 | COCC(=O)Nc1ccc2c(c1)[C@@H]1C[C@@H](CC(=O)NCc3ccc(-c4ccccc4)cc3)O[C@@H](CO)[C@@H]1O2 | 10.1 µM
41 | COc1ccc(C(=O)CN2C(=O)c3ccccc3S2(=O)=O)cc1 | 0.279 µM
42 | CN(C[C@H]1N[C@@H](CO)[C@@H]1c1ccc(C2=CCCC2)cc1)C(=O)c1ccc(F)cc1 | 5.59 µM
43 | CC(C)c1ccccc1NC(=O)COC(=O)CCN1C(=O)/C(=C\C=C\c2ccccc2)SC1=S | 1.9 µM
44 | COc1cc(C(=O)N2CCC(N3CCN(C)CC3)CC2)ccc1Nc1ncc2c(n1)N(C)c1ccccc1C(=O)N2C | 4.75 µM

Row | Structure (SMILES) | AC35
45 | N#CC(C#N)=C1C=CC=CN1/C(=C\c1ccco1)C(=O)c1ccc(Cl)cc1 | 7.6 µM
46 | C[C@@H]1CN([C@@H](C)CO)S(=O)(=O)c2ccc(C#CC(C)(C)O)cc2O[C@H]1CN(C)Cc1ccc(-c2ccccc2)cc1 | 2.8 µM
47 | C[C@@H]1CN([C@@H](C)CO)C(=O)Cc2cc(NC(=O)C3CCCCC3)ccc2O[C@H]1CN(C)Cc1ccc(C(=O)Nc2ccccc2N)cc1 | 29.1 µM
48 | O=C(NC1CCCC1)N1CCCCN2[C@@H](CO)[C@@H](c3ccc(/C=C/c4ccccc4)cc3)[C@@H]2C1 | 14.3 µM
49 | COc1ccc(S(=O)(=O)N2CC[C@@H]3[C@@H](CO)Nc4ccc(-c5ccc(C#N)cc5)cc4[C@@H]32)cc1 | 0.625 µM
50 | CC12CCC3C(CCC4(O)CC(O)CCC34C=NO)C1(O)CCC2C1=COC(=O)C1 (stereo not drawn) | 0.293 µM
51 | C[C@H](CO)N1C[C@H](C)[C@H](CN(C)CC2CCCCC2)Oc2ccc(NC(=O)CCCCCC(=O)Nc3ccccc3N)cc2CC1=O | 4.96 µM
52 | COC1C(O)C(C)OC(OC2C(Oc3cccc4c(O)c5c(=O)oc6ccc(C)c7c(=O)oc(c34)c5c67)OC(C)C(O)C2O)C1O (stereo not drawn) | 4.49 µM
53 | COc1ccc(CNc2ncc(-c3ccc(F)cc3)n2C)c2ccccc12 | 6.93 µM
54 | CC1(C)N=C(N)N=C(N)N1c1ccc(CCCCc2ccccc2)cc1 | 2.72 µM
55 | Cc1nc(N)nc(N)c1-c1ccc(Cl)c(Cl)c1 | 0.495 µM
56 | CC[C@@H]1C[C@H]2CC[C@H](O2)[C@H](C)C(=O)O[C@@H](C)C[C@@H]2CC[C@@H](O2)[C@@H](C)C(=O)O[C@H](C)C[C@H]2CC[C@H](O2)[C@H](C)C(=O)O[C@@H](C)C[C@@H]2CC[C@@H](O2)[C@@H](C)C(=O)O1 | 0.0992 µM
57 | CCOc1cc2[nH]c(=S)n(Cc3ccc(C(=O)NCCN(CC)CC)cc3)c(=O)c2cc1OCC | 31.1 µM
58 | Cc1nn(Cc2ccccc2Cl)c2sc(C(=O)Nc3ccccc3N3CCOCC3)cc12 | 10.3 µM
59 | Cc1sc2nc(CN3CCC(C)CC3)nc(Cl)c2c1C | 63 µM
60 | O=C(/C=C/c1cc(Br)ccc1O)c1ccco1 | 10.7 µM
61 | CC(C)NC(=O)N(C)C[C@@H]1Oc2cc(C#Cc3ccc(F)cc3)ccc2S(=O)(=O)N([C@H](C)CO)C[C@H]1C | 33.9 µM
62 | O=c1[nH]c(=O)n(C2C[C@H](O)[C@@H](CO)O2)cc1C(F)(F)F (stereo partly drawn) | 4.01 µM
63 | COc1cccc(-c2cc(NC=O)c3ncc(-c4ccc(C(C)=O)cc4)n3c2)c1 | 6.25 µM
64 | O=C(O)c1ccc(N/N=C/c2c(F)cccc2Cl)cc1 | 4.61 µM
65 | O=c1oc2cc(O)ccc2s1 | 11.8 µM
66 | N#C[C@H]1N[C@H](CO)[C@H]1c1ccc(C#Cc2ccc(F)cc2)cc1 | 0.123 µM

Row | Structure (SMILES) | AC35
67 | CCCNC(=O)N1[C@H](C#N)[C@H](c2ccc(C#Cc3cccc(F)c3)cc2)[C@H]1CO | 8.47 µM
68 | Cc1ccc(S(=O)(=O)Nc2ccc3c(c2)C(=O)N([C@@H](C)CO)C[C@@H](C)[C@@H](CN(C)Cc2ccc(C(=O)Nc4ccccc4N)cc2)O3)cc1 | 6.44 µM
69 | COc1ccc(/C=C2\SC(=S)N(CCCC(=O)NC3CCCC3)C2=O)cc1OC | 38.5 µM
70 | COC(=O)C1=C(C)N(Cc2cccc(C(F)(F)F)c2)C(=NCc2ccc(OC)cc2)NC1c1cccc(F)c1 (stereo not drawn) | 13.2 µM
71 | COc1ccc(NS(=O)(=O)c2cc(NC(=O)CNC(=O)c3cccc(OC)c3)ccc2C)cc1 | 66.3 µM
72 | CCc1ccc(/C=C2\SC(=S)N(CCCC(=O)N3CCN(C)CC3)C2=O)cc1 | 21.3 µM
73 | Oc1c(C(c2ccc(Cl)cc2)N2CCCC2)cc(Cl)c2cccnc12 (stereo not drawn) | 9.79 µM
74 | C[C@H](CO)N1C[C@H](C)[C@H](CN(C)Cc2ccc(Oc3ccccc3)cc2)Oc2ccc(NC(=O)Cn3cnnn3)cc2CC1=O | 33.2 µM
75 | COc1ccc(C(=O)Nc2cccc(C(=O)N/N=C/c3ccc(OC)cc3OC)c2)cc1 | 31.2 µM
76 | C/C(=C\c1ccccc1)C(=O)N1CCC=CC1=O | 10.3 µM
77 | CC(=O)c1ccc(N=C2C(=O)Nc3ccccc32)cc1 | 19.3 µM
78 | CN(C)c1ccc(N=Nc2ccc(C(=O)O)cc2)cc1 | 5.73 µM
79 | Cc1ccc(S(=O)(=O)Nc2ccc3c(c2)C(=O)N([C@H](C)CO)C[C@@H](C)[C@@H](CN(C)Cc2ccc(C(=O)Nc4ccccc4N)cc2)O3)cc1 | 9.6 µM
80 | Cc1cccc(CN2C(=O)/C(=C\c3ccc(C(=O)NCCCN4CCN(C)CC4)cc3)Oc3ccccc32)c1 | 11.6 µM
81 | N#C[C@@H]1[C@H](c2ccc(C#Cc3ccccc3F)cc2)[C@@H](CO)N1C(=O)c1cccnc1 | 5.46 µM
82 | CCc1ccc2oc(C(=O)N3CCN(c4ccccc4OC)CC3)cc(=O)c2c1 | 10.7 µM
83 | CN(C)c1ccc2c(c1)[C@@H]1C[C@@H](CC(=O)NCc3ccc(Oc4ccccc4)cc3)O[C@H](CO)[C@@H]1O2 | 5.8 µM
84 | O=C1c2ccc3c4c(ccc(c24)C(=O)N1c1cccc(O)c1)C(=O)N(c1cccc(O)c1)C3=O | 5.35 µM
85 | Cc1ccc(/C=C/C(=O)N2CCN(S(=O)(=O)c3c(C)c(C)cc(C)c3C)CC2)o1 | 49 µM
86 | N#CC(=C1C=CC(=NO)C(Cl)=C1)c1ccccc1 | 5.85 µM
87 | O=C(COC(=O)c1ccc[nH]c1=O)Nc1ccc(N2CCCCC2)cc1 | 0.283 µM
88 | Cc1nc(N)nc(N)c1CCCc1ccc(Cl)c(Cl)c1 | 2.49 µM

From PubChem BioAssay AID686920 (Broad Institute, 2013)
